Reference: PubChem BioAssay AID493133 (Sanford-Burnham Center for Chemical Genomics, 2011)
The source made the active and inactive calls. The rule behind the calls is not given here.

Biological target: Alkaline phosphatase, tissue-nonspecific isozyme (Homo sapiens) (UniProt P05186)
Experiment: human TNAP activity change by analogs – biochemical, selectivity assay for mouse IAP activator project, SAR follow-up (AID 493133)
Settings: purified human TNAP enzyme, phosphatase activity counter-screen

Chain of Alkaline phosphatase, tissue-nonspecific isozyme (Homo sapiens) (P05186 whole entry, looked up): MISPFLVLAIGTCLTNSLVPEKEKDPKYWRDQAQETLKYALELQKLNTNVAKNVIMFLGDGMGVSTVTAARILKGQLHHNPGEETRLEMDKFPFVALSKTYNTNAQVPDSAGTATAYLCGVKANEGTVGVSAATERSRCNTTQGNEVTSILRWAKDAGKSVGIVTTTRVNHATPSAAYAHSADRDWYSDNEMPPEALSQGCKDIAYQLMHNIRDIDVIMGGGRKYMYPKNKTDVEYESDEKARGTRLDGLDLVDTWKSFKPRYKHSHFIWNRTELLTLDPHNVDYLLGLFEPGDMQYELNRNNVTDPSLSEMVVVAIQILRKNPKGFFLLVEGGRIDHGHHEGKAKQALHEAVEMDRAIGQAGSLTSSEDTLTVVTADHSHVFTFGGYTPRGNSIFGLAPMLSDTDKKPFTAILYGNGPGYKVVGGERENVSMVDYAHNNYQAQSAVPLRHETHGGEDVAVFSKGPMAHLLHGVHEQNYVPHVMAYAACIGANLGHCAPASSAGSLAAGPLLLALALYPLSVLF

SMILES | EC50
O=C(NN=Cc1cccnc1)c1cc(O)c(O)c(O)c1 | > 100 µM (inactive)
Cc1ccc(NC(=O)CCNS(=O)(=O)c2ccc3[nH]c(=O)oc3c2)cc1F | > 100 µM (inactive)
Cc1ccc(NC(=O)CCNS(=O)(=O)c2ccc3[nH]c(=O)oc3c2)cc1N(C)C | > 100 µM (inactive)
COc1cc(Cl)c(C)cc1NC(=O)CSc1sc2c(O)cc(=O)[nH]c2c1C#N | > 100 µM (inactive)
CCOC(=O)NC(=O)CSc1sc2c(O)cc(=O)[nH]c2c1C#N | > 100 µM (inactive)
CCCSc1nnc(NC(=O)CSc2sc3c(O)cc(=O)[nH]c3c2C#N)s1 | > 100 µM (inactive)
COc1cccc(NC(=O)CN(C)S(=O)(=O)c2ccc3[nH]c(=O)oc3c2)c1 | > 100 µM (inactive)
O=C(CN1C(=O)/C(=C/c2ccco2)SC1=S)NC1CCS(=O)(=O)C1 (stereo unspecified) | > 100 µM (inactive)
COc1ccccc1NC(=O)CSc1sc2c(O)cc(=O)[nH]c2c1C#N | > 100 µM (inactive)
O=C(CN1C(=O)/C(=C/c2ccco2)SC1=S)NC1C=CS(=O)(=O)C1 (stereo unspecified) | > 100 µM (inactive)
N#Cc1c(SCC(=O)Nc2nc3ccc(Br)cc3s2)sc2c(O)cc(=O)[nH]c12 | > 100 µM (inactive)
O=C(N/N=C/c1ccccc1F)c1cc(O)c(O)c(O)c1 | > 100 µM (inactive)
O=C(O)CC(C(=O)O)N1C(=O)/C(=C/c2ccc(-c3nc4ccccc4s3)o2)SC1=S (stereo unspecified) | > 100 µM (inactive)
CCc1nnc(NC(=O)CSc2sc3c(O)cc(=O)[nH]c3c2C#N)s1 | > 100 µM (inactive)
O=C(CN1C(=O)/C(=C/c2ccco2)SC1=S)NCCc1ccc(O)cc1 | > 100 µM (inactive)
CCOc1ccccc1NC(=O)CCNS(=O)(=O)c1ccc2[nH]c(=O)oc2c1 | > 100 µM (inactive)

SMILES | EC50
COc1ccc(NC(=O)C(CC(C)C)NS(=O)(=O)c2ccc3[nH]c(=O)oc3c2)cc1 (stereo unspecified) | > 100 µM (inactive)
CC(C)NC(=O)CSc1sc2c(O)cc(=O)[nH]c2c1C#N | > 100 µM (inactive)
O=C(CN1C(=O)/C(=C/c2ccco2)SC1=S)Nc1ccc(C(=O)O)c(O)c1 | > 100 µM (inactive)
O=C(CCN1C(=O)/C(=C\c2ccco2)SC1=S)Nc1ccc(C(=O)O)c(O)c1 | > 100 µM (inactive)
O=C(CN1C(=O)/C(=C/c2ccco2)SC1=S)Nc1ccc2nccnc2c1 | > 100 µM (inactive)
CSc1cccc(NC(=O)CCNS(=O)(=O)c2ccc3[nH]c(=O)oc3c2)c1 | > 100 µM (inactive)
N#Cc1c(SCC(=O)Nc2nc3ccccc3s2)sc2c(O)cc(=O)[nH]c12 | > 100 µM (inactive)
Cc1ccc(NC(=O)CSc2sc3c(O)cc(=O)[nH]c3c2C#N)c(F)c1 | > 100 µM (inactive)
CCOc1ccc2nc(NC(=O)CN(C)S(=O)(=O)c3ccc4[nH]c(=O)oc4c3)sc2c1 | > 100 µM (inactive)
COc1ccc(CNC(=O)CSc2sc3c(O)cc(=O)[nH]c3c2C#N)cc1OC | > 100 µM (inactive)
FC(F)(F)c1cccc(NC(=S)NCCC(c2ccccc2)c2ccccc2)c1 | 84.5 µM
N#Cc1c(SCC(=O)Nc2cccc(F)c2)sc2c(O)cc(=O)[nH]c12 | > 100 µM (inactive)
O=C(CN1C(=O)/C(=C/c2ccco2)SC1=S)Nc1ccc(C(=O)O)cc1 | > 100 µM (inactive)
COc1cc(C(=O)NNC(=S)NC(=O)c2ccc(Cl)cc2)cc(OC)c1OC | 29.4 µM
CCSc1nnc(NC(=O)CSc2sc3c(O)cc(=O)[nH]c3c2C#N)s1 | > 100 µM (inactive)

Now from value to molecule:

EC50 | SMILES
> 100 µM (inactive) | CCc1ccc(NC(=O)CN(C)S(=O)(=O)c2ccc3[nH]c(=O)oc3c2)cc1
18.4 µM | COc1cc(C(=O)NNc2nc3cc4c(cc3s2)OCO4)cc(OC)c1OC
> 100 µM (inactive) | COc1ccc(CNC(=O)CSc2sc3c(O)cc(=O)[nH]c3c2C#N)cc1
44.8 µM | COc1ccc(NC(=S)NCCC(c2ccccc2)c2ccccc2)cc1
> 100 µM (inactive) | NS(=O)(=O)c1ccc(-c2ccc(/C=C3\SC(=S)N(C4CCS(=O)(=O)C4)C3=O)o2)cc1 (stereo unspecified)
> 100 µM (inactive) | CCOc1ccccc1CNC(=O)CCNS(=O)(=O)c1ccc2[nH]c(=O)oc2c1
> 100 µM (inactive) | O=S(=O)(Nc1ncccn1)c1ccc(NC(=S)NCCC(c2ccccc2)c2ccccc2)cc1
40.5 µM | COc1cc(C(=O)NNC(=S)NC(=O)c2ccccc2C)cc(OC)c1OC
> 100 µM (inactive) | O=C(NCCc1ccc(Cl)cc1)C1CCCN(S(=O)(=O)c2ccc3[nH]c(=O)oc3c2)C1 (stereo unspecified)
> 100 µM (inactive) | N#Cc1c(SCC(=O)NCc2ccc3c(c2)OCO3)sc2c(O)cc(=O)[nH]c12
> 100 µM (inactive) | O=C(CN1C(=O)/C(=C/c2ccco2)SC1=S)N[C@@H]1CSC[C@@H]1O
> 100 µM (inactive) | COc1cccc(/C=N/NC(=O)c2cc(O)c(O)c(O)c2)c1
> 100 µM (inactive) | O=[N+]([O-])c1ccc(NC(=S)NCCC(c2ccccc2)c2ccccc2)cc1
> 100 µM (inactive) | O=C(CCN1C(=O)/C(=C/c2ccco2)SC1=S)Nc1ccc(O)cc1C(=O)O
> 100 µM (inactive) | O=C(CN1C(=O)/C(=C\c2ccco2)SC1=S)Nc1ccc(O)cc1C(=O)O
> 100 µM (inactive) | CC(C(=O)NCCc1ccc(O)cc1)N1C(=O)/C(=C/c2ccco2)SC1=S (stereo unspecified)
> 100 µM (inactive) | CCN(CC)C(=O)CSc1sc2c(O)cc(=O)[nH]c2c1C#N
> 100 µM (inactive) | COc1cc(C(=O)NNC(=O)C2CC2)cc(OC)c1OC

EC50 | SMILES
> 100 µM (inactive) | CC(C(=O)Nc1ccc(C(=O)O)cc1)N1C(=O)/C(=C\c2ccco2)SC1=S (stereo unspecified)
> 100 µM (inactive) | Cc1ccc(C)c(NC(=O)CCNS(=O)(=O)c2ccc3[nH]c(=O)oc3c2)c1
> 100 µM (inactive) | CC(C(=O)Nc1ccc(C(=O)O)c(O)c1)N1C(=O)/C(=C\c2ccco2)SC1=S (stereo unspecified)
> 100 µM (inactive) | Cc1ccc(NC(=O)CCNS(=O)(=O)c2ccc3[nH]c(=O)oc3c2)c(C)c1
> 100 µM (inactive) | COc1ccc(NC(=O)CCNS(=O)(=O)c2ccc3[nH]c(=O)oc3c2)cc1Cl
> 100 µM (inactive) | COc1ccc(OC)c(NC(=O)CSc2sc3c(O)cc(=O)[nH]c3c2C#N)c1
> 100 µM (inactive) | CC(C)C(C(=O)NC1CCS(=O)(=O)C1)N1C(=O)/C(=C\c2ccco2)SC1=S (stereo unspecified)
> 100 µM (inactive) | O=C(N/N=C/C1CC=CCC1)c1cc(O)c(O)c(O)c1 (stereo unspecified)
> 100 µM (inactive) | Cc1cc(=O)oc2cc(NC(=S)NCCC(c3ccccc3)c3ccccc3)ccc12
> 100 µM (inactive) | CC(C)c1ccc(NC(=O)CCNS(=O)(=O)c2ccc3[nH]c(=O)oc3c2)cc1
> 100 µM (inactive) | CN(C(=O)CN1C(=O)/C(=C\c2ccco2)SC1=S)C1CCS(=O)(=O)C1 (stereo unspecified)
> 100 µM (inactive) | O=C(NNC(=O)c1cc(O)c(O)c(O)c1)NC1CCCCC1
> 100 µM (inactive) | O=C(CCCN1C(=O)/C(=C/c2ccco2)SC1=S)Nc1ccccc1
> 100 µM (inactive) | COc1ccccc1NC(=O)CCNS(=O)(=O)c1ccc2[nH]c(=O)oc2c1
> 100 µM (inactive) | Cc1ccc(/C=C2\SC(=S)N(C3CCS(=O)(=O)C3)C2=O)o1 (stereo unspecified)
> 100 µM (inactive) | O=C(N/N=C/C1CC2CCC1C2)c1cc(O)c(O)c(O)c1 (stereo unspecified)
> 100 µM (inactive) | O=C(CN1C(=O)/C(=C/c2ccco2)SC1=S)Nc1ccc(O)c(C(=O)O)c1
